According to patent US9187790B2, “Saccharification of lignocellulosic biomass” (priority 2012, dated 2015):
Where a name gives a salt, the structure may show the parent alone. Read-outs that look alike come from different tables or passages of the source. One block for each compound: values may come before it.

Experiments:
[1] = for Conversion: 1 ml H2O, 1500 mg LiBr, 100 mg spruce powder, 2 mg acid, 140° C., 30 min
Saccharomyces cerevisiae = assay: Glucose fermentation to ethanol in the presence of residual salt; type: cell-based
Description: Complete separation of LiBr from sugars is difficult and expensive. Small amounts of LiBr or CaBr2 may be retained in the sugar product stream generated by the processes of this invention. If the sugars are intended for use for fermentation, the residual salt could potentially affect the fermentation. […]

[2] = Extraction of LiBr from LiBr-glucose solution with n-butanol/hexane; type: physicochemical; design: Glucose retained/extraction steps: unit not given here; details: for LiBr content left in the LiBr-glucose solution: butanol to hexane 7:3; for LiBr extracted / LiBr/sugar (separation efficiency) / Glucose extracted: organic phase from the 1st extraction; for glucose extracted into the butanol phase: butanol to hexane ratio 7/3; for Glucose retained after extraction: 200 mg glucose and 1500 mg LiBr in 1 mL water
Description: A LiBr-glucose solution was first used to test the butanol extraction.

[3] = Hydrolysis of biomass in concentrated solutions of different salts; details: for conversion/hydrolysis of polysaccharides (in words): concentration of salt 60%
Description: Hydrolysis of biomass in different metal halide solutions was investigated.

[4] = Extraction of CaBr2 from CaBr2-glucose solution with n-butanol/hexane; type: physicochemical
Protocol: As mentioned above, CaBr2 can work as effectively as LiBr to hydrolyze lignocellulosic biomass. CaBr2 was extracted from glucose with the butanol extraction method as described above (A). […] More than half of the initial glucose was extracted to the solvent phase. […] Only 10 mg glucose was extracted into 5:5 butanol/hexane.

[5] = Crystallization/precipitation of glucose by ethanol; type: physicochemical; details: 400 mg glucose, 2 mL ethanol, 120° C. then cooled to room temperature
Protocol: Glucose was dissolved in ethanol by heating to 120° C. to facilitate dissolution. The resulting clear solution was then cooled to room temperature with stirring to allow sugar crystallization (or precipitation). Precipitated glucose was filtered and washed with ethanol. However, a small amount of glucose was found dissolved in ethanol, and therefore glucose was not fully recovered. […] The same crystallization operation was carried out as for pure glucose above. […] Almost all other sugars and LiBr were however retained in the ethanol. […] In addition, xylose may negatively affect the crystallization of glucose.

[6] = cited from earlier work
[7] = Solubility in water and organic solvent; type: physicochemical; details: 60% salt in water
Description: After the extraction, any small amount of LiBr in the sugar stream can be removed by means of ion exchange resin, crystallization, precipitation with anti-solvent, and precipitation with sodium carbonate, as described in Examples herein.

[8] = salt concentration 2% (w/v), FIG. 9A
[9] = over the investigated concentrations (0 to 5% w/v)
[10] = butanol:hexane 5:5 (v/v), 15 extraction steps
[11] = butanol:hexane 6:4 (v/v), 13 extraction steps
[12] = butanol:hexane 6.5:3.5 (v/v), 12 extraction steps
[13] = butanol:hexane 7:3 (v/v), 10 extraction steps
[14] = butanol:hexane 7.5:2.5 (v/v), 9 extraction steps
[15] = butanol:hexane 8:2 (v/v), 9 extraction steps
[16] = butanol:hexane 8.5:1.5 (v/v), 8 extraction steps
[17] = butanol:hexane 9:1 (v/v), 7 extraction steps
[18] = butanol:hexane 10:0 (v/v), 6 extraction steps

Compound: O=[N+]([O-])O [HNO3, nitric acid]
- Conversion [1]: 100%
- effectiveness in catalyzing the hydrolysis of spruce (in words) ([1]; 60% LiBr solution): as effective as hydrochloric acid

Compound: [Br-].[Li+] [LiBr, Lithium bromide]
- inhibition on sugar fermentation (Saccharomyces cerevisiae; [8]): more inhibitory than NaCl and CaCl2
- inhibition on sugar fermentation (Saccharomyces cerevisiae; salt concentration 5% (w/v)): the inhibition was significant
- inhibition on sugar fermentation (Saccharomyces cerevisiae; salt concentration below 5% (w/v), FIG. 7): did not have significant inhibition
- LiBr content left in the LiBr-glucose solution ([2]; after 10 extractions, from 1500 mg): 250 mg
- LiBr content left in the LiBr-glucose solution ([2]; after 20 extractions): 50 mg
- LiBr content left in the LiBr-glucose solution ([2]; after 30 extractions): 30 mg
- LiBr extracted ([2]; butanol:hexane 5:5): 141 mg
- LiBr/sugar (separation efficiency) ([2]; butanol:hexane 5:5): 71
- LiBr extracted ([2]; butanol:hexane 6:4): 152 mg
- LiBr/sugar (separation efficiency) ([2]; butanol:hexane 6:4): 51
- LiBr extracted ([2]; butanol:hexane 6.5:3.5): 195 mg
- LiBr/sugar (separation efficiency) ([2]; butanol:hexane 6.5:3.5): 49
- LiBr extracted ([2]; butanol:hexane 7:3): 216 mg
- LiBr/sugar (separation efficiency) ([2]; butanol:hexane 7:3): 48
- LiBr extracted ([2]; butanol:hexane 7.5:2.5): 231 mg
- LiBr/sugar (separation efficiency) ([2]; butanol:hexane 7.5:2.5): 46
- LiBr extracted ([2]; butanol:hexane 8:2): 252 mg
- LiBr/sugar (separation efficiency) ([2]; butanol:hexane 8:2): 46
- LiBr extracted ([2]; butanol:hexane 8.5:1.5): 277 mg
- LiBr/sugar (separation efficiency) ([2]; butanol:hexane 8.5:1.5): 40
- LiBr extracted ([2]; butanol:hexane 9:1): 310 mg
- LiBr/sugar (separation efficiency) ([2]; butanol:hexane 9:1): 26
- LiBr extracted ([2]; butanol:hexane 10:0): 383 mg
- LiBr/sugar (separation efficiency) ([2]; butanol:hexane 10:0): 19
- Conversion [3]: 100%
- conversion/hydrolysis of polysaccharides (in words) [3]: complete conversion/hydrolysis

Compound: [Ca+2].[Cl-].[Cl-] [CaCl2, calcium chloride, reference compound]
- inhibition on sugar fermentation (Saccharomyces cerevisiae; [9]): does not appear to be inhibitory
- Conversion [3]: 70%

Compound: Cl [HCl, hydrochloric acid]
- Conversion [1]: 100%

Compound: CC(=O)O [CH3COOH, acetic acid]
- Conversion [1]: 90%

- glucose extracted into the butanol phase [2]: about 10%
- glucose extracted into the butanol phase ([2]; out of 320 mg glucose): ~30 mg
- Glucose retained/extraction steps [2, 10]: 12.6
- Glucose retained after extraction [2, 10]: 190 mg
- Glucose extracted ([2]; butanol:hexane 5:5): 2 mg
- Glucose retained/extraction steps [2, 11]: 14.5
- Glucose retained after extraction [2, 11]: 189 mg
- Glucose extracted ([2]; butanol:hexane 6:4): 3 mg
- Glucose retained/extraction steps [2, 12]: 16
- Glucose retained after extraction [2, 12]: 187 mg
- Glucose extracted ([2]; butanol:hexane 6.5:3.5): 4 mg
- Glucose retained/extraction steps [2, 13]: 18.5
- Glucose retained after extraction [2, 13]: 185 mg
- Glucose extracted ([2]; butanol:hexane 7:3): 4.5 mg
- Glucose retained/extraction steps [2, 14]: 19.4
- Glucose retained after extraction [2, 14]: 175 mg
- Glucose extracted ([2]; butanol:hexane 7.5:2.5): 5 mg
- Glucose retained/extraction steps [2, 15]: 17.8
- Glucose retained after extraction [2, 15]: 160 mg
- Glucose extracted ([2]; butanol:hexane 8:2): 5.5 mg
- Glucose retained/extraction steps [2, 16]: 17.5
- Glucose retained after extraction [2, 16]: 140 mg
- Glucose extracted ([2]; butanol:hexane 8.5:1.5): 7 mg
- Glucose retained/extraction steps [2, 17]: 16.5
- Glucose retained after extraction [2, 17]: 115 mg
- Glucose extracted ([2]; butanol:hexane 9:1): 12 mg
- Glucose retained/extraction steps [2, 18]: 16
- Glucose retained after extraction [2, 18]: 95 mg
- Glucose extracted ([2]; butanol:hexane 10:0): 20 mg
- glucose extracted into butanol/hexane ([4]; butanol/hexane 5:5, 30 extractions): 10 mg
- glucose left in the solution ([4]; butanol/hexane 5:5, 30 extractions, from 200 mg): 190 mg
- glucose left in the aqueous phase ([4]; butanol/hexane 7:3, 10 extractions, 1500 mg CaBr2, 1 mL water, 200 mg glucose): approximately 95 mg
- Precipitated glucose ([5]; Entry 0: LiBr 0 mg, water 0 μL): 400 mg
- Precipitated glucose ([5]; Entry 1: LiBr 50 mg, water 30 μL): 330 mg
- Precipitated glucose ([5]; Entry 2: LiBr 50 mg, water 50 μL): 330 mg
- Precipitated glucose ([5]; Entry 3: LiBr 50 mg, water 100 μL): 330 mg
- Precipitated glucose ([5]; Entry 4: LiBr 50 mg, water 150 μL): 330 mg
- Precipitated glucose ([5]; Entry 5: LiBr 100 mg, water 150 μL): 320 mg
- Precipitated glucose ([5]; Entry 6: LiBr 150 mg, water 150 μL): 300 mg
- Precipitated glucose ([5]; Entry 7: LiBr 200 mg, water 150 μL): 250 mg
Compound: O=C[C@H](O)[C@@H](O)[C@H](O)[C@H](O)CO [glucose]
- solubility in n-butanol (in words) [6]: insoluble

Compound: [Cl-].[Li+] [LiCl, reference compound]
- temperature at which the solution starts crystallizing [7]: 120 °C
- conversion/hydrolysis of polysaccharides (in words) [3]: complete conversion/hydrolysis

Compound: [Cl-].[Na+] [NaCl, reference compound]
- inhibition on sugar fermentation (Saccharomyces cerevisiae; salt concentration 5% (w/v)): showed inhibition similar to LiBr

Compound: O=P(O)(O)O [H3PO4, phosphoric acid]
- Conversion [1]: 95%

Compound: [Br-].[Br-].[Ca+2] [CaBr2]
- ethanol yield (Saccharomyces cerevisiae; compared with LiBr, FIG. 8): higher
- inhibition on sugar fermentation (Saccharomyces cerevisiae; [9]): generally less inhibitory
- inhibition on sugar fermentation (Saccharomyces cerevisiae; [8]): more inhibitory than NaCl and CaCl2
- inhibition on sugar fermentation (Saccharomyces cerevisiae; salt concentration 5% (w/v)): Inhibition became more significant
- CaBr2 left in the solution ([4]; butanol/hexane 5:5, 30 extractions, from 1500 mg): 70 mg
- conversion/hydrolysis of polysaccharides (in words) [3]: complete conversion/hydrolysis
